# Data reported in patent publication US20090076012A1, “Modulation of pathogenicity” (priority 2002, published 2009).
# System: bioluminescent sensor strain Escherichia coli MT102 (pSB403)
# Assay: Biosensor assay: quorum sensing inhibition, bioluminescence of the sensor strain
# Type: cell-based
# Details: 3oxo-C6-HSL 100 nM; bioluminescence after 4 hours at 30° C.
# Experimental: Quorum sensing inhibition of the compounds was investigated with the aid of the bioluminescent sensor strain Escherichia coli MT102 (pSB403) (Winson et al., FEMS Microbiol. Lett. 163:185-92, 1998). Plasmid pSB403 contains the Photobacterium fischeri luxR gene together with the […] promoter region as a transcriptional fusion to the bioluminescence genes luxCDABE of Photorhabdus luminescence.
# Inhibitory studies were conducted in a microtitre dish assay as follows: the E. coli sensor strain grown over night in LB medium (Sambrook et al., Molecular Cloning: A Laboratory Manual. 2nd Edn. Cold Spring Harbor Laboratory, New York, 1989) was diluted 1:4 and grown for another 1 hour at 30° C. After addition of 3oxo-C6-HSL (final concentration 100 nM) 100 μl of an exponential culture suspension were filled in the wells of a FluoroNunc Polysorp microtitre dish. The test compounds were added to the culture in different concentrations and bioluminescence was measured after 4 hours of incubation at 30° C. with a Lamda Fluoro 320 Plus reader (Bio-Tek Instruments). Inhibitor-mediated reduction of light emission was correlated with the value obtained without addition of the test compounds. IC50 values (concentration of inhibitor required for 50% inhibition of the signal compared to the signal without inhibitor) were determined by using a fitting function after drawing a graph of the activities of eight different inhibitor concentrations.
row,Structure (SMILES),IC50 [µM]
1,"CCn1nc(C)c(Br)c1C(=O)NNC(=O)c1ccc(Cl)s1 [Compound 67, 4-Bromo-2ethyl-5-methyl-2H-pyrazole-3-carboxylic acid N′-(5-chloro-thiophene-2-carbonyl)-hydrazide]",> 100
2,"CCn1nc(C)c(Br)c1C(=O)NNC(=O)c1ccc(Cl)s1 [Compound 73, 4-Bromo-2-ethyl-5-methyl-2H-pyrazole-3-carboxylic acid N′-(5-chloro-thiophene-2-carbonyl)-hydrazide]",1 to 50

# Same assay, conditions: Escherichia coli, 4 h, 3oxo-C6-HSL 100 nM; bioluminescence after 4 hours at 30° C.
row,Structure (SMILES),IC50 [µM]
1,"O=C(NNC(=O)c1cccs1)c1ccsc1 [Compound 47, Thiophene-3-carboxylic acid N′-(thiophene-2-carbonyl)-hydrazide]",1 to 50
2,O=C(NNC(=O)c1sccc1Br)c1ccc(Cl)s1 [Compound 48],50 to 100
3,"O=C(NNC(=O)c1sccc1Cl)c1sccc1Cl [Compound 49, 3-Chloro-thiophene-2-carboxylic acid N′-(3-chloro-thiophene-2-carbonyl)-hydrazide]",50 to 100
4,"COc1c(C(=O)NNC(=O)c2cccs2)csc1Cl [Compound 50, 5-Chloro-4-methoxy-thiophene-3-carboxylic acid N′-(thiophene-2-carbonyl)-hydrazide]",50 to 100
5,"O=C(NNC(=O)c1sccc1Cl)c1cccs1 [Compound 51, 3-Chloro-thiophene-2-carboxylic acid N′-(thiophene-2-carbonyl)-hydrazide]",50 to 100
6,"O=C(NNC(=O)c1ccc(Cl)s1)c1cccs1 [Compound 52, Thiophene-2-carboxylic acid N′-(5-chloro-thiophene-2-carbonyl)-hydrazide]",50 to 100
7,"COc1c(C(=O)NNC(=O)c2ccc(C)s2)csc1Br [Compound 53, 5-Bromo-4-methoxy-thiophene-3-carboxylic acid N′-(5-methyl-thiophene-2-carbonyl)-hydrazide]",1 to 50
8,"Cc1ccc(C(=O)NNC(=O)c2cccs2)s1 [Compound 54, Thiophene-2-carboxylic acid N′-(5-methyl-thiophene-2-carbonyl)-hydrazide]",1 to 50
9,"O=C(NNC(=O)c1sccc1Br)c1cccs1 [Compound 55, Thiophene-2-carboxylic acid N′-(3-bromo-thiophene-2-carbonyl)-hydrazide]",1 to 50
10,"CCOc1ccsc1C(=O)NNC(=O)c1sccc1Br [Compound 56, 3-Bromo-thiophene-2-carboxylic acid N′-(3-ethoxy-thiophene-2-carbonyl)-hydrazide]",1 to 50
11,"Cc1ccc(C(=O)NNC(=O)c2sccc2Br)s1 [Compound 57, 3-Bromo-thiophene-2-carboxylic acid N′-(5-methyl-thiophene-2-carbonyl)-hydrazide]",1 to 50
12,"O=C(NNC(=O)c1sccc1Cl)c1ccc(Cl)s1 [Compound 58, 3-Chloro-thiophene-2-carboxylic acid N′-(5-chloro-thiophene-2-carbonyl)-hydrazide]",50 to 100
13,"O=C(NNC(=O)c1ccc(Br)s1)c1cccs1 [Compound 59, Thiophene-2-carboxylic acid N′-(5-bromo-thiophene-2-carbonyl)-hydrazide]",1 to 50
14,"O=C(NNC(=O)c1sc2ccccc2c1Cl)c1cccs1 [Compound 60, 3-Chloro-benzo[b]thiophene-2-carboxylic acid N′-(thiophene-2-carbonyl)-hydrazide]",1 to 50
15,"O=C(NNC(=O)c1sc2ccccc2c1Cl)c1sccc1Br [Compound 61, 3-Chloro-benzo[b]thiophene-2-carboxylic acid N′-(3-bromo-thiophene-2-carbonyl)-hydrazide]",50 to 100
16,"O=C(NNC(=O)c1sc2ccccc2c1Cl)c1ccc(Br)s1 [Compound 62, 3-Chloro-benzo[b]thiophene-2-carboxylic acid N′-(5-bromo-thiophene-2-carbonyl)-hydrazide]",50 to 100
17,Cc1nn(C)c2ncc(C(=O)NNC(=O)c3cccs3)c(Cl)c12 [Compound 63],> 100
18,"Cc1cc(C(=O)NNC(=O)c2sc3ccccc3c2Cl)n(C)n1 [Compound 64, 2,5-Dimethyl-2H-pyrazole-3-carboxylic acid N′-(3-chloro-benzo[b]thiophene-2-carbonyl)-hydrazide]",> 100
19,"Cc1cc(C(=O)NNC(=O)c2cccs2)n(C)n1 [Compound 66, 2,5-Dimethyl-2H-pyrazole-3-carboxylic acid N′-(thiophene-2-carbonyl)-hydrazide]",> 100
20,"Cc1cc(C(=O)NNC(=O)c2cccs2)n(C(C)(C)C)n1 [Compound 68, Thiophene-2-carboxylic acid N′-(2-tert-butyl-5-methyl-2H-pyrazole-3-carbonyl)-hydrazide]",> 100
21,"Cn1nc(C(C)(C)C)cc1C(=O)NNC(=O)c1ccc(Cl)s1 [Compound 69, 5-tert-Butyl-2-methyl-2H-pyrazole-3-carboxylic acid N′-(5-chloro-thiophene-2-carbonyl)-hydrazide]",1 to 50
22,"Cn1nc(C(C)(C)C)cc1C(=O)NNC(=O)c1cccs1 [Compound 70, Thiophene-2-carboxylic acid N′-(5-tert-butyl-2-methyl-2H-pyrazole-3-carbonyl)-hydrazide]",> 100

row,Structure (SMILES),IC50 [µM]
1,"CCn1nc(C)c(Br)c1C(=O)NNC(=O)c1ccc(Br)s1 [Compound 71, 4Bromo-2-ethyl-5-methyl-2H-pyrazole-3-carboxylic acid N′-(5-bromo-thiophene-2-carbonyl)-hydrazide]",1 to 50
2,"CCn1nc(C)c(Br)c1C(=O)NNC(=O)c1scc(C)c1Cl [Compound 72, 4-Bromo-2-ethyl-5-methyl-2H-pyrazole-3-carboxylic acid N′-(3-chloro-4-methylthiophene-2-carbonyl)-hydrazide]",> 100
3,"CCn1nc(C)c(Br)c1C(=O)NNC(=O)c1cc(Br)c(Br)s1 [Compound 74, 4-Bromo-2-ethyl-5-methyl-2H-pyrazole-3-carboxylic acid N′-(4,5-di-bromo-thiophene-2-carbonyl)-hydrazide]",> 100
4,"CCCC(=O)NNC(=O)c1cccs1 [Compound 75, Thiophene-2-carboxylic acid N′-butyryl-hydrazide]",1 to 50
5,"CCCC(=O)NNC(=O)c1ccc(C)s1 [Compound 76, 5-Methyl-thiophene-2-carboxylic acid N′-butyryl-hydrazide]",50 to 100
6,"CCCC(=O)NNC(=O)c1ccc(Br)s1 [Compound 77, 5-Bromo-thiophene-2-carboxylic acid N′-butyryl-hydrazide]",1 to 50
7,"O=C(CCCCCBr)NNC(=O)c1cccs1 [Compound 78, Thiophene-2-carboxylic acid N′-(6-bromo-hexanoyl)-hydrazide]",1 to 50
8,"CCCCCCC(=O)NNC(=O)c1cccs1 [Compound 79, Thiophene-2-carboxylic acid N′-heptanoyl-hydrazide]",1 to 50
9,"Cc1csc(C(=O)NNC(=O)CCCCCBr)c1Cl [Compound 80, 3-Chloro-4-methyl-thiophene-2-carboxylic acid N′-(6-bromo-hexanoyl)-hydrazide]",1 to 50
10,"CCCCCCC(=O)NNC(=O)c1scc(C)c1Cl [Compound 81, 3-Chloro-4-methyl-thiophene-Z-carboxylic acid N′-heptanoyl-hydrazide]",1 to 50
11,"Cc1ccc(C(=O)NNC(=O)CCCCCBr)s1 [Compound 82, 5-Methyl-thiophene-2-carboxylic acid N′-(6-bromohexanoyl)-hydrazide]",1 to 50
12,"CCCCCCC(=O)NNC(=O)c1ccc(C)s1 [Compound 83, 5-Methyl-thiophene-2-carboxylic acid N′-heptanoyl-hydrazide]",1 to 50
13,"CCCCCCC(=O)NNC(=O)c1ccc(Br)s1 [Compound 84, 5-Bromo-thiophene-2-carboxylic acid N′-heptanoyl-hydrazide]",1 to 50
14,"CCCCCCCC(=O)NNC(=O)c1sccc1Br [Compound 85, 3-Bromo-thiophene-2carboxylic acid N′-octanoyl-hydrazide]",1 to 50
15,"CCCCCCCCCCCC(=O)NNC(=O)c1cccs1 [Compound 86, Thiophene-2-carboxylic acid N′-dodecanoyl-hydrazide]",1 to 50
16,"Cc1ccc(C(=O)NNC(=O)CCC2CCCC2)s1 [Compound 87, 5-Methyl-thiophene-2-carboxylic acid N′-(3-cyclopentyl-propionyl)-hydrazide]",1 to 50
17,COC(=O)CCCC(=O)NNC(=O)c1ccc(C)s1 [Compound 88],> 100
18,"CCCCCCC(=O)NNC(=O)c1ccco1 [Compound 89, Furan-2-carboxylic acid N′-heptanoyl-hydrazide]",1 to 50
19,"O=C(CCC1CCCC1)NNC(=O)c1ccco1 [Compound 90, Furan-2-carboxylic acid N′-(3-cyclopentyl-propionyl)-hydrazide]",1 to 50
20,"CCCCCCCC(=O)NNC(=O)c1c(C)noc1C [Compound 91, 3,5-Dimethyl-isoxazole-4carboxylic acid N′-octanoyl-hydrazide]",1 to 50
21,"CCCCCCCC(=O)NNC(=O)c1c(Br)c(C)nn1CC [Compound 92, 4-Bromo-2-ethyl-5-methyl-2H-pyrazole-3-carboxylic acid N′-octanoyl-hydrazide]",50 to 100
22,"CCCCCCCC(=O)NNC(=O)c1ccnc(Cl)c1 [Compound 93, 2-Chloro-isonicotinic acid N′-octanoyl-hydrazide]",1 to 50
